Results on ten molecules are retold here after article PMC5038266 (Antimicrobial Agents and Chemotherapy, 2016).

“Also recorded” adds a separate entry of the source. Like-named read-outs stand apart in the source and are kept apart here.

A short description of series [1]: Study 1: multiple-dose drug-drug interaction pharmacokinetics, delamanid with ethambutol plus Rifater. The conditions noted are these: for AUC / Cmax: human, plasma, po, ethambutol 1100 mg + Rifater once daily, mean ± SD; for AUC: AUCτ of coadministered drug; for Cmax: Cmax of coadministered drug.
Series [2] can be described thus: Study 2: multiple-dose drug-drug interaction pharmacokinetics, delamanid with tenofovir or Kaletra (lopinavir/ritonavir). The conditions noted are these: for Equivalence outcome for steady-state exposure of coadministered drug: coadministered with delamanid.
Series [3] in a line: Study 2 safety assessments (adverse events). It is filed as in vivo, human (healthy subjects). The conditions noted are these: combinations of delamanid with either tenofovir or lopinavir and ritonavir.
The nature of series [4]: Study 3 safety assessments (adverse events). The series is classed as in vivo, human (healthy subjects). The conditions noted are these: efavirenz alone, delamanid alone, and delamanid plus efavirenz.
The conditions of series [5]: human, in vivo.
The conditions of series [6]: in vivo.
The conditions of series [7]: Study 1; multiple once-daily oral doses of 200 mg delamanid alone and in combination with ethambutol and rifampin/isoniazid/pyrazinamide.
Series [8] deals with MDR-TB. The conditions noted are these: cited from earlier work.
The test system of series [9] is CYP enzymes. Further details: method as in PMID 17132069. The conditions noted are these: cited from earlier work.
Series [10] in a line: clinical. The conditions noted are these: human, in vivo, po; for Tmax: Delamanid Tmax.
A short description of series [11]: clinical. The conditions noted are these: human, in vivo, po; for AUC: Delamanid AUCτ.
A short description of series [12]: Study 3: multiple-dose drug-drug interaction pharmacokinetics, delamanid with efavirenz. The conditions noted are these: for AUC / Cmax: human, po; for AUC: Delamanid AUCτ.
The mark [13] stands for this setting: delamanid plus optimized background regimen for ≤2 months.
[14] abbreviates: ethambutol-Rifater plus delamanid versus ethambutol-Rifater alone.
Where [15] appears, read: with DLM, day 15, with delamanid 200 mg once daily.
The mark [16] stands for this setting: without DLM, day 15, without delamanid.
[17] abbreviates: Cmax of coadministered drug, with DLM.

Take `C[C@]1(COc2ccc(N3CCC(Oc4ccc(OC(F)(F)F)cc4)CC3)cc2)CN=C(N)O1` [DM-6705]: the “Lower metabolite AUCτ when delamanid coadministered with ethambutol-Rifater” value in series [1] (based on the AUC, versus delamanid alone) was in the range of 30 to 50%. Moreover, the “Higher exposure on coadministration of lopinavir/ritonavir (Kaletra) with delamanid” value in [2] (delamanid and metabolites, unpublished results for metabolites) was “approximately 25%”.
In the case of `C[C@]1(COc2ccc(N3CCC(Oc4ccc(OC(F)(F)F)cc4)CC3)cc2)Cn2cc([N+](=O)[O-])nc2O1` [Delamanid], the Tolerability result in [3], in series [4] and in series [7] was “well tolerated” in each case. For the same molecule, in [5], the “Delamanid concentrations reached steady state by day” value is no more than 15 days. Also, the “Lower delamanid AUCτ on coadministration with ethambutol plus Rifater” value in series [5] worked out at 47%. In addition, in [5], the “Lower delamanid Cmax on coadministration with ethambutol plus Rifater” value is 42%. Also, the “Delamanid concentrations reached steady-state by day” value in series [6] (human) was no more than 14 days. Further, the “Delamanid AUCτ” value in series [6] (human, po, 100 mg) was 5,830 ± 1,660 ng·h/ml. In series [6] (human, po, 100 mg), the “Delamanid Cmax” value is 734 ± 196 ng/mL. The “Effect of tenofovir coadministration on delamanid PK/systemic exposure” value in series [6] is given as “did not affect”. Besides, in series [6], the “Equivalence outcome for steady-state exposure of delamanid” value is on record as “documented”. Besides, in series [8] (MDR-TB patients, delamanid + optimized background regimen for 2 months compared to placebo + optimized background regimen), the “Improvement of 2-month sputum culture conversion” value was “approximately 50%”. Moreover, the Favorable treatment outcomes was 55% in series [8] (setting [13]) and 74.5% in [8] (delamanid plus optimized background regimen for ≥6 months, P < 0.001). Besides, the Mortality is on record as 12.0% in series [8] (setting [13]) and 2.9% in series [8] (delamanid plus optimized background regimen for ≥6 months, P = 0.001). The “Effects on CYP activities” value in [9] (in vitro) is on record as “neither stimulatory nor inhibitory effects”. For the same molecule, the “Metabolism by CYP enzymes” value in series [9] (incubation of delamanid with liver microsomes, metabolites minimally quantifiable) is on record as “not metabolized by CYP enzymes”. The AUC is 3110 ng·h/mL in series [10] (200 mg, Delamanid AUCτ); 5950 ng·h/mL in series [10] (200 mg, Delamanid AUCτ, Study 1, DLM + PLC, delamanid 200 mg once daily, day 15, plasma, mean ± SD); 4510 ng·h/mL in series [11] (100 mg); 4700 ng·h/mL in series [11] (100 mg, Study 2, DLM alone, delamanid 100 mg twice daily, day 14, plasma, mean ± SD); 4240 ng·h/mL in [12] (in vivo, 100 mg, DLM + EFV (efavirenz 600 mg once daily for 10 days), delamanid 100 mg twice daily, day 17 evening dose, mean ± SD); 4380 ng·h/mL in series [12] (in vivo, 100 mg, DLM alone, delamanid 100 mg twice daily, day 7 evening dose, mean ± SD). Moreover, the highest concentration (Cmax) in [10] (200 mg, Delamanid Cmax) was found to be 270 ± 38.9 ng/mL; in series [10] (200 mg, Delamanid Cmax, Study 1, DLM + PLC, delamanid 200 mg once daily, day 15, plasma, mean ± SD) it was 476 ± 119 ng/mL; in series [11] (100 mg, Delamanid Cmax), 518 ± 114 ng/mL; in series [11] (100 mg, Delamanid Cmax, Study 2, DLM alone, delamanid 100 mg twice daily, day 14, plasma, mean ± SD), 617 ± 135 ng/mL; in series [12] (in vivo, 100 mg, Delamanid Cmax, DLM + EFV (efavirenz 600 mg once daily for 10 days), delamanid 100 mg twice daily, day 17 evening dose) it was 394 ng/mL; in series [12] (in vivo, 100 mg, Delamanid Cmax, DLM alone, delamanid 100 mg twice daily, day 7 evening dose), 391 ng/mL. Moreover, the Tmax amounted to 4.06 h in [10] (200 mg); 4 h in series [10] (200 mg, Study 1, DLM + PLC, delamanid 200 mg once daily, day 15, plasma, median (min-max)); 4 h in series [11] (100 mg). The “Effect of efavirenz coadministration on delamanid steady-state exposure/PK” value in series [12] is “did not significantly affect”. Besides, in series [12] (DLM alone, delamanid 100 mg twice daily, day 7 evening dose, median (min-max)), the “Delamanid Tmax” value is on record as 4.00 (2.00–6.00) h. The “Effect of CYP2C9 genotype on delamanid PK” value in [1] (unpublished results) was “no effect”. The “Equivalence outcome for delamanid exposure” value in series [2] (after lopinavir/ritonavir coadministration) is “Equivalence was suggested”.
On to `O=C1Nc2ccc(Cl)cc2[C@@](C#CC2CC2)(C(F)(F)F)O1` [Efavirenz], for which the Tolerability result in series [4] is “well tolerated”. The “Effect of delamanid on efavirenz plasma concentrations/exposure” value in series [12] is “not affected; also recorded: did not affect”. Moreover, the “AUCτ of coadministered drug, without DLM” value in series [12] (efavirenz 600 mg once daily in the evening for 10 days, without delamanid, mean ± SD) is 84.7 ± 37.8 (14) h·µg/ml. Further, the Cmax worked out at 5810 ± 3030 ng/mL in [12] (plasma, 600 mg, Cmax of coadministered drug, with DLM, efavirenz 600 mg once daily in the evening for 10 days, with delamanid 100 mg twice daily, mean ± SD) and 5950 ± 1670 ng/mL in [12] (plasma, 600 mg, Cmax of coadministered drug, without DLM, efavirenz 600 mg once daily in the evening for 10 days, without delamanid, mean ± SD).
Turning to `CC[C@@H](CO)NCCN[C@@H](CC)CO` [Ethambutol], in [1] (setting [14]), the “Higher AUCτ with delamanid coadministration” value was “approximately 25%” and the “Higher Cmax with delamanid coadministration” value is on record as “approximately 25%”. Also, in series [1] (setting [15]), the AUC was found to be 22400 ± 4770 ng·h/mL and the Cmax worked out at 4450 ± 820 ng/mL. Further, the AUC in series [1] (setting [16]) was determined as 18200 ± 3210 ng·h/mL.
In the case of `NNC(=O)c1ccncc1` [Isoniazid], the AUC in [10] (AUCτ of coadministered drug, without DLM, Study 1, ethambutol 1100 mg + Rifater once daily, day 15, without delamanid, mean ± SD) was 20000 ± 8000 ng·h/mL. Also, the “Isoniazid concentrations in slow acetylators versus intermediate/rapid acetylators (NAT2 genotype)” value in series [1] is roughly 2 fold. Besides, in series [1] (setting [15]), the AUC was 12100 ± 6900 ng·h/mL and the Cmax is 4620 ± 980 ng/mL.
Consider `Cc1cccc(C)c1OCC(=O)N[C@@H](Cc1ccccc1)[C@@H](O)C[C@H](Cc1ccccc1)NC(=O)[C@H](C(C)C)N1CCCNC1=O` [Lopinavir], for which, in series [2], the “Effect of delamanid on exposure of coadministered drug” value (“Effect … of coadministered drug” below) is reported as “not affected” and the “Equivalence outcome for steady-state exposure of coadministered drug” value (“Equivalence outcome … of coadministered drug” for short) is on record as “equivalence was documented”. In addition, the “Cmax of coadministered drug, without DLM” value in series [2] (tenofovir 300 mg once daily or lopinavir 400 mg/ritonavir 100 mg twice daily, day 14, without delamanid, mean ± SD) is given as 12.9 ± 3.17 (11) μg/ml.
In the case of `NC(=O)c1cnccn1` [Pyrazinamide], the Cmax in series [10] (Cmax of coadministered drug, without DLM) was 49700 ng/mL; in [1] (setting [15]), 51400 ± 9060 ng/mL. For the same molecule, the exposure (AUC) was 533000 ± 141000 ng·h/mL in series [1] (setting [15]) and 488000 ± 90300 ng·h/mL in series [1] (setting [16]).
Consider `CO[C@H]1/C=C/O[C@@]2(C)Oc3c(C)c(O)c4c(O)c(c(/C=N/N5CCN(C)CC5)c(O)c4c3C2=O)NC(=O)/C(C)=C\C=C\[C@H](C)[C@H](O)[C@@H](C)[C@@H](O)[C@@H](C)[C@H](OC(C)=O)[C@@H]1C` [Rifampin], for which the AUC in [10] (AUCτ of coadministered drug, with DLM) is 55900 ng·h/mL; in series [10] (AUCτ of coadministered drug, without DLM) it was 48200 ng·h/mL. The Cmax in series [10] (setting [17]) came to 13200 ng/mL.
Consider `CC(C)c1nc(CN(C)C(=O)N[C@H](C(=O)N[C@@H](Cc2ccccc2)C[C@H](O)[C@H](Cc2ccccc2)NC(=O)OCc2cncs2)C(C)C)cs1` [Ritonavir], for which the Cmax in series [11] (setting [17]) was determined as 1270 ng/mL. Also, in [2], the “Effect … of coadministered drug” value is on record as “not affected” and the “Equivalence outcome … of coadministered drug” value is “suggested”.
As to `C[C@H](Cn1cnc2c(N)ncnc21)OCP(=O)(O)O` [Tenofovir], the Cmax in series [11] (setting [17]) came to 294 ng/mL. Further, in series [2], the “Effect … of coadministered drug” value is on record as “not affected” and the “Equivalence outcome … of coadministered drug” value is recorded as “suggested”. Moreover, in [2] (tenofovir 300 mg once daily or lopinavir 400 mg/ritonavir 100 mg twice daily, day 14, with delamanid 100 mg twice daily, mean ± SD), the “AUCτ of coadministered drug, with DLM” value was 2.850 ± 0.644 (13) h·µg/ml.
